Among the data in patent publication US10709706B2, “Nuclear transport modulators and uses thereof” (Karyopharm Therapeutics Inc., priority 2015, dated 2020) are IC50 values, retold here.

Holding throughout (assay type): cell-based
Experiment [1] deals with 3T3 cells. As to the kind of experiment: MTT cell proliferation assay, 3T3 cells. As to conditions: Mus musculus, NIH3T3, 3T3 fibroblast cells, approximately 64-72 hours, 1 nM to 30 μM. The gist of the method: (§1)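 Cells (5,000-10,000/well) attached overnight, then received eight concentrations from 1 nM to 30 μM. MTT was added for ~4 h, and solubilized formazan was read at 490 nm. Percent inhibition is relative to the negative control, mostly in duplicate, as mean±SE; 3T3 are Swiss mouse embryo fibroblasts, MM1S human myeloma.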
A general note: Formazan colour is commonly taken as a measure of viable cells.

The test system of experiment [2] is Z138 cells. As to the kind of experiment: MTT cell proliferation assay, Z138 cells. The following applies: Homo sapiens, Z-138, approximately 64-72 hours, 1 nM to 30 μM.
In experiment [3] the test system is MM1S cells. The experiment can be described thus: MTT cell proliferation assay, MM1S cells. The following applies: Homo sapiens, MM1.S, MM1S multiple myeloma cells, approximately 64-72 hours, 1 nM to 30 μM. The essentials: as §1

Broadly, the IC50 is the concentration at which inhibition is half-maximal. The low end stands for greater potency in that assay, the high end for weaker potency in that assay. Consider `NC(=O)/C(=C/c1ccnc(-c2cc(C(F)(F)F)cc(C(F)(F)F)c2)n1)c1cncc2ccccc12` [Compound 158, (E)-3-(2-(3,5-bis(trifluoromethyl)phenyl)pyrimidin-4-yl)-2-(isoquinolin-4-yl)acrylamide], for which the IC50 in experiment [1] was more than 30 µM; in experiment [2], less than 0.1 µM; in experiment [3], less than 0.1 µM.

For the compound `NC(=O)/C(=C/c1ccnc(-c2cc(C(F)(F)F)cc(C(F)(F)F)c2)n1)c1ccc(S(=O)(=O)N2CCC(F)(F)CC2)cc1` [Compound 159, (E)-3-(2-(3,5-bis(trifluoromethyl)phenyl)pyrimidin-4-yl)-2-(4-((4,4-difluoropiperidin-1-yl)sulfonyl)phenyl)acrylamide], the 50% inhibitory concentration (IC50) was more than 30 µM in experiment [1], 0.1 to 5 µM in experiment [2] and 5 to 30 µM in experiment [3].

Turning to `NC(=O)/C(=C/c1ccnc(-c2cc(C(F)(F)F)cc(C(F)(F)F)c2)n1)c1cccc(S(=O)(=O)N2CCC(C(F)(F)F)CC2)c1` [Compound 160, (E)-3-(2-(3,5-bis(trifluoromethyl)phenyl)pyrimidin-4-yl)-2-(3-((4-(trifluoromethyl)piperidin-1-yl)sulfonyl)phenyl)acrylamide], the IC50 in experiment [1], in experiment [2] and in experiment [3] was more than 30 µM each time.

For `Cc1ccc(F)cc1/C(=C\c1ccnc(-c2cc(C(F)(F)F)cc(C(F)(F)F)c2)n1)C(N)=O` [Compound 161, (E)-3-(2-(3,5-bis(trifluoromethyl)phenyl)pyrimidin-4-yl)-2-(5-fluoro-2-methylphenyl)acrylamide], the IC50 in experiment [1], in experiment [2] and in experiment [3] was more than 30 µM each time.

With `NC(=O)/C(=C/c1ccnc(-c2cc(C(F)(F)F)cc(C(F)(F)F)c2)n1)c1cccc(S(=O)(=O)N2CCCC2)c1` [Compound 162, (E)-3-(2-(3,5-bis(trifluoromethyl)phenyl)pyrimidin-4-yl)-2-(3-(pyrrolidin-1-ylsulfonyl)phenyl)acrylamide], the IC50 in experiment [1], in experiment [2] and in experiment [3] was more than 30 µM in each case.

On to `NC(=O)/C(=C/c1ccnc(-c2cc(C(F)(F)F)cc(C(F)(F)F)c2)n1)c1ccc(F)cc1` [Compound 163, (E)-3-(2-(3,5-bis(trifluoromethyl)phenyl)pyrimidin-4-yl)-2-(4-fluorophenyl)acrylamide], for which the IC50 in experiment [1], in experiment [2] and in experiment [3] was more than 30 µM throughout.

Consider `CC1(C)CN(S(=O)(=O)c2cccc(/C(=C\c3ccnc(-c4cc(C(F)(F)F)cc(C(F)(F)F)c4)n3)C(N)=O)c2)CCO1` [Compound 164, (E)-3-(2-(3,5-bis(trifluoromethyl)phenyl)pyrimidin-4-yl)-2-(3-((2,2-dimethylmorpholino)sulfonyl)phenyl)acrylamide], for which the IC50 in experiment [1] is more than 30 µM; in experiment [2], more than 30 µM; in experiment [3], 0.1 to 5 µM.

`NC(=O)/C(=C/c1ccnc(-c2cc(C(F)(F)F)cc(C(F)(F)F)c2)n1)c1ccc(N2CCOCC2)cc1` [Compound 165, (E)-3-(2-(3,5-bis(trifluoromethyl)phenyl)pyrimidin-4-yl)-2-(4-morpholinophenyl)acrylamide]: the IC50 in experiment [1], in experiment [2] and in experiment [3] was more than 30 µM in each case.

Turning to `NC(=O)/C(=C/c1ccnc(-c2cc(C(F)(F)F)cc(C(F)(F)F)c2)n1)c1cccc(S(=O)(=O)N2CCC2)c1` [Compound 166, (E)-2-(3-(azetidin-1-ylsulfonyl)phenyl)-3-(2-(3,5-bis(trifluoromethyl)phenyl)pyrimidin-4-yl)acrylamide], the IC50 in experiment [1], in experiment [2] and in experiment [3] was more than 30 µM in each case.

With `NC(=O)/C(=C/c1ccnc(-c2cc(C(F)(F)F)cc(C(F)(F)F)c2)n1)c1cccc(S(=O)(=O)N2CCCCC2)c1` [Compound 167, (E)-3-(2-(3,5-bis(trifluoromethyl)phenyl)pyrimidin-4-yl)-2-(3-(piperidin-1-ylsulfonyl)phenyl)acrylamide], the IC50 in experiment [1], in experiment [2] and in experiment [3] was more than 30 µM each time.
